Reference: ChEMBL document CHEMBL1275512, “Comparative in vitro activities of the investigational fluoroquinolone DC-159a and other antimicrobial agents against human mycoplasmas and ureaplasmas” (2008)
In brackets after ≈: the same amount, converted by molar mass. Activity calls are given as the source filed them. No cut-off for these calls is given here.

Tests used:
Mycoplasma genitalium = test: Antimicrobial activity against Mycoplasma genitalium by broth microdilution method; type: functional; conditions: Mycoplasmoides genitalium
Ureaplasma parvum [1] = test: Antimicrobial activity against Ureaplasma parvum by broth microdilution method; type: functional
Mycoplasma fermentans = test: Antimicrobial activity against Mycoplasma fermentans by broth microdilution method; type: functional; conditions: Mycoplasmopsis fermentans
Ureaplasma parvum [2] = test: Antimicrobial activity against fluoroquinolone-resistant Ureaplasma parvum by broth microdilution method; type: functional
Metamycoplasma hominis = test: Antimicrobial activity against Mycoplasma hominis by broth microdilution method; type: functional
[3] = test system: Mycoplasmoides pneumoniae; test: Antimicrobial activity against Mycoplasma pneumoniae by broth microdilution method; type: functional
Ureaplasma urealyticum = test: Antimicrobial activity against Ureaplasma urealyticum by broth microdilution method; type: functional
[4] = test system: Mycoplasmoides pneumoniae; test: Bactericidal activity against Mycoplasma pneumoniae at 8 X MIC after 120 hrs; type: functional, organism-based
[5] = test system: Mycoplasmoides pneumoniae; test: Bactericidal activity against Mycoplasma pneumoniae assessed as log reduction in bacterial load at MIC after 72 hrs; type: functional
[6] = test system: Mycoplasmoides pneumoniae; test: Bactericidal activity against Mycoplasma pneumoniae assessed as log reduction in bacterial load at MIC after 24 hrs; type: functional
[7] = test system: Mycoplasmoides pneumoniae; test: Bactericidal activity against Mycoplasma pneumoniae at MIC after 48 hrs; type: functional, organism-based

MIC [3] [µg/mL] | SMILES | MIC (Mycoplasma genitalium) [µg/mL] | MIC (Ureaplasma parvum [1]) [µg/mL] | MIC50 (Ureaplasma parvum [1]) [µg/mL] | MIC90 (Ureaplasma parvum [1]) [µg/mL] | MIC50 (Mycoplasma fermentans) [µg/mL] | MIC90 (Mycoplasma fermentans) [µg/mL] | MIC (Ureaplasma parvum [2]) [µg/mL] | MIC50 (Metamycoplasma hominis) [µg/mL] | MIC90 (Metamycoplasma hominis) [µg/mL] | MIC50 [3] [µg/mL] | MIC90 [3] [µg/mL] | MIC50 (Ureaplasma urealyticum) [µg/mL] | MIC90 (Ureaplasma urealyticum) [µg/mL] | Activity [4] | FC [5] | FC [6] | Activity [7] | MIC (Ureaplasma urealyticum) [µg/mL]
 | C[C@H]1COc2c(N3CCN(C)CC3)c(F)cc3c(=O)c(C(=O)O)cn1c23.C[C@H]1COc2c(N3CCN(C)CC3)c(F)cc3c(=O)c(C(=O)O)cn1c23.O [LEVOFLOXACIN] | 1 | 0.5 | 0.5 | 2 | 0.063 | 0.125 | 16 | 0.25 | 0.5 | 0.5 | 1 | 1 | 1 |  |  |  |  | 
≤ 0.001 | CC[C@H]1OC(=O)[C@H](C)[C@@H](O[C@H]2C[C@@](C)(OC)[C@@H](O)[C@H](C)O2)[C@H](C)[C@@H](O[C@@H]2O[C@H](C)C[C@H](N(C)C)[C@H]2O)[C@](C)(O)C[C@@H](C)CN(C)[C@H](C)[C@@H](O)[C@]1(C)O [AZITHROMYCIN] | ≤ 0.001 |  | 1 (≈ 1.34 µM) | 2 (≈ 2.67 µM) |  |  |  |  |  | ≤ 0.001 | ≤ 0.001 | 2 (≈ 2.67 µM) | 4 (≈ 5.34 µM) |  |  |  |  | 
 | C[C@H]1c2cccc(O)c2C(=O)C2=C(O)[C@]3(O)C(=O)C(C(N)=O)=C(O)[C@@H](N(C)C)[C@@H]3[C@@H](O)[C@@H]21.O [DOXYCYCLINE] | 0.032 |  | 0.125 | 2 | 0.25 | 1 |  | 2 | 8 | 0.25 | 0.5 | 0.125 | 0.5 |  |  |  |  | 
 | CC[C@H]1OC(=O)[C@H](C)[C@@H](O[C@H]2C[C@@](C)(OC)[C@@H](O)[C@H](C)O2)[C@H](C)[C@@H](O[C@@H]2O[C@H](C)C[C@H](N(C)C)[C@H]2O)[C@](C)(O)C[C@@H](C)C(=O)[C@H](C)[C@@H](O)[C@]1(C)O [ERYTHROMYCIN] | ≤ 0.001 |  | 1 (≈ 1.36 µM) | 4 (≈ 5.45 µM) | 0.032 (≈ 0.0436 µM) | 0.125 (≈ 0.17 µM) |  | 0.016 (≈ 0.0218 µM) | 0.032 (≈ 0.0436 µM) | 0.004 (≈ 0.00545 µM) | 0.004 (≈ 0.00545 µM) | 2 (≈ 2.73 µM) | 4 (≈ 5.45 µM) | Active |  |  |  | 
 | CN(C)[C@@H]1C(O)=C(C(N)=O)C(=O)[C@@]2(O)C(O)=C3C(=O)c4c(O)cccc4[C@@](C)(O)[C@H]3C[C@@H]12 [TETRACYCLINE] | 0.25 (≈ 0.563 µM) |  | 0.5 (≈ 1.13 µM) | 8 (≈ 18 µM) | 0.5 (≈ 1.13 µM) | 1 (≈ 2.25 µM) |  | 0.5 (≈ 1.13 µM) | 16 (≈ 36 µM) | 0.5 (≈ 1.13 µM) | 1 (≈ 2.25 µM) | 0.5 (≈ 1.13 µM) | 2 (≈ 4.5 µM) |  |  |  |  | 
 | COc1c(N2CC3(CC3)[C@](C)(N)C2)c(F)cc2c(=O)c(C(=O)O)cn([C@@H]3C[C@@H]3F)c12 | 0.016 (≈ 0.0381 µM) |  | 0.5 (≈ 1.19 µM) | 2 (≈ 4.77 µM) | 0.016 (≈ 0.0381 µM) | 0.032 (≈ 0.0763 µM) | 4 (≈ 9.54 µM) | 0.125 (≈ 0.298 µM) | 0.25 (≈ 0.596 µM) | 0.063 (≈ 0.15 µM) | 0.063 (≈ 0.15 µM) | 0.5 (≈ 1.19 µM) | 1 (≈ 2.38 µM) |  | 3 | 3 |  | 
 | COc1c(N2C[C@@H]3CCCN[C@@H]3C2)c(F)cc2c(=O)c(C(=O)O)cn(C3CC3)c12 [MOXIFLOXACIN] | 0.016 (≈ 0.0399 µM) |  | 0.5 (≈ 1.25 µM) | 2 (≈ 4.98 µM) | 0.032 (≈ 0.0797 µM) | 0.063 (≈ 0.157 µM) | 4 (≈ 9.96 µM) | 0.063 (≈ 0.157 µM) | 0.063 (≈ 0.157 µM) | 0.125 (≈ 0.311 µM) | 0.125 (≈ 0.311 µM) | 0.25 (≈ 0.623 µM) | 0.5 (≈ 1.25 µM) |  |  |  | Active | 0.25 (≈ 0.623 µM)
 | O=C(O)c1cn(C2CC2)c2cc(N3CCNCC3)c(F)cc2c1=O [CIPROFLOXACIN] | 0.5 (≈ 1.51 µM) |  | 2 (≈ 6.04 µM) | 16 (≈ 48.3 µM) | 0.063 (≈ 0.19 µM) | 0.125 (≈ 0.377 µM) | 32 (≈ 96.6 µM) | 0.5 (≈ 1.51 µM) | 1 (≈ 3.02 µM) | 2 (≈ 6.04 µM) | 4 (≈ 12.1 µM) | 4 (≈ 12.1 µM) | 8 (≈ 24.1 µM) |  |  |  |  | 
